Measured values from PMC10605077, “In Vitro and In Silico Antiviral Activity of Di-Halogenated Compounds Derived from L-Tyrosine against Human Immunodeficiency Virus 1 (HIV-1)” (Current Issues in Molecular Biology, 2023).
Entries after “also recorded” stand apart in the source; their conditions may differ. Like-named read-outs stand apart in the source and are kept apart here.

Key:
[1] = tested on: HIV-1 BaL (R5); experiment: Anti-HIV activity in infected TZM-bl cells (luciferase), pre- and post-infection treatment; type: cell-based, Human Immunodeficiency Virus Type 1 (HIV-1); details: for anti-HIV activity against R5 strain in words: HIV-1 BaL; for inhibition at 18 µM / inhibition at 37 µM / inhibition at 75 µM / inhibition at 150 µM / inhibition at 300 µM: read-out: Percentage inhibition of HIV-1 BaL replication
Experimental: (§1) TZM-bl cells were plated in a flat-bottom 96-well plate (Corning Inc., Corning, New York, NY, USA) at the concentration of 1.2 × 10^5 cells/well and incubated for 24 h at 37 °C before the addition or not of each compound at non-cytotoxic concentrations (pre-infection treatment). Then, 1 h later the treatment was removed, and the infection was performed by adding 10 ng/mL of HIV-1IIIB p24 (X4) or 2 ng/mL of HIV-1 BaL (R5). After 3 h, the virus was removed and washed, and the compound dilutions were added again (post-infection treatment). Additionally, three wells were left for the negative control (cells without treatment or infection), the positive control of infection (cells infected with the virus without treatment), and the positive control of inhibition (AZT). Antiviral activity was quantified 48 h after treatment by measuring luciferase activity, which is directly proportional to the number of infectious virus particles in the sample [23]. The luciferase activity was quantified via luminescence emitted by the cells using Bright-GloTM Luciferase Assay System (Promega Corp., Madison, WI, USA), following the manufacturer’s instructions. Briefly, 100 μL of the reagent was added to 100 μL of TZM-bl cells and incubated for at least 2 min, protected from light. Relative light units (RLUs) were measured using the multi-mode plate reader (Thermo ScientificTM VarioskanTM LUX). Each experimental condition was performed in triplicate in two independent experiments (n = 6). The percentage inhibition was calculated as follows: 100 − (RLU of treated cells − RLU of uninfected cells/RLU of infection control − RLU of uninfected cells) × 100.

[2] = tested on: HIV-1IIIB (X4); experiment: as above; type: cell-based, Human Immunodeficiency Virus Type 1 (HIV-1); details: for anti-HIV activity against X4 strain in words: HIV-1IIIB; for inhibition at 18 µM / inhibition at 37 µM / inhibition at 75 µM / inhibition at 150 µM: Human immunodeficiency virus 1, TZM-bl, read-out: Percentage inhibition of HIV-1IIIB (X4 strain) replication
Experimental: as §1

[3] = MTT cytotoxicity assay; type: cell-based; details: human; TZM-bl cells, MTT, 48 h
Experimental: The in vitro cytotoxic effect of the di-halogenated compounds on TZM-bl cells was determined with the MTT (3-(4,5-Dimethylthiazol-2-yl)-2,5-diphenyltetrazolium bromide) assay (Sigma-Aldrich, St. Louis, MO, USA). For this purpose, 1.2 × 10^5 cells/well were seeded in 96-well plates, which were incubated at 37 °C and 5% CO2 for 24 h. DMEM was used as a negative control and serial two-fold dilutions of the compounds were performed at 9.37 to 300 μM in DMEM supplemented with 5% FBS. A total of 100 μL/well of each dilution was added and incubated for 48 h. Subsequently, the cells were washed 2 times with 1X PBS, and 30 μL of MTT solution (2 mg/mL) was added and incubated for 2 h at 37 °C, in a light-protected culture. Then, 100 µL of DMSO was added to dissolve the formazan crystals, placed in shaking for 15 min, and absorbance reading was performed at 570 nm, using the Microplate Spectrophotometer (Thermo Scientific™ Multiskan™ GO, Waltham, MA, USA). Two independent experiments evaluated each experimental condition in quadruplicate (n = 8). The percentage of viability was calculated concerning the absorbance of the controls without a compound (100% viability). The 50% cytotoxic concentration was defined as the concentration of each compound that can reduce cell viability to 50% of the untreated cell control. CC50 was calculated and analyzed with GraphPad Prism version 8.0.1 (GraphPad Software, Inc., San Diego, CA, USA).

[4] = Human immunodeficiency virus 1, BAL, 18 µM, TZM-bl cells
[5] = Human immunodeficiency virus 1, BAL, 37 µM, TZM-bl cells
[6] = Human immunodeficiency virus 1, BAL, 75 µM, TZM-bl cells
[7] = Human immunodeficiency virus 1, BAL, 150 µM, TZM-bl cells
[8] = Human immunodeficiency virus 1, BAL, TZM-bl cells
[9] = Human immunodeficiency virus 1, BAL, TZM-bl

| Structure (SMILES) | anti-HIV activity against R5 strain in words ([1]; TZM-bl cells) | inhibition at 18 µM [1, 4] [%] | inhibition at 37 µM [1, 5] [%] | inhibition at 75 µM [1, 6] [%] | inhibition at 150 µM [1, 7] [%] | anti-HIV activity against X4 strain in words ([2]; TZM-bl cells) | inhibition at 18 µM ([2]; 18 µM, TZM-bl cells) [%] | inhibition at 37 µM ([2]; 37 µM, TZM-bl cells) [%] | inhibition at 75 µM ([2]; 75 µM, TZM-bl cells) [%] | inhibition at 150 µM ([2]; 150 µM, TZM-bl cells) [%] | inhibition at 18 µM [1, 9] [%] | inhibition at 37 µM [1, 9] [%] | inhibition at 75 µM [1, 9] [%] | inhibition at 150 µM [1, 9] [%] | inhibition at 18 µM [2] [%] | inhibition at 37 µM [2] [%] | inhibition at 75 µM [2] [%] | inhibition at 150 µM [2] [%] | also measured |
| --- | --- | --- | --- | --- | --- | --- | --- | --- | --- | --- | --- | --- | --- | --- | --- | --- | --- | --- | --- |
| CN(C)[C@@H](Cc1cc(Br)c(O)c(Br)c1)C(=O)O [TDB-2M] | did not inhibit the replicative activity | -57.9 | -45.5 | -19.2 | -51.9 | did not inhibit the replicative activity | -1.3 | 15.9 | -2.9 | 2.9 |  |  |  |  |  |  |  |  |  |
| C[N+](C)(C)[C@@H](Cc1cc(Br)c(O)c(Br)c1)C(=O)O [TDB-3M] | did not inhibit the replicative activity | -20.5 | -9.6 | -18 | -61.9 | did not inhibit the replicative activity | 2.7 | 21.6 | -15.7 | -22.4 |  |  |  |  |  |  |  |  |  |
| CN(C)[C@@H](Cc1cc(Cl)c(O)c(Cl)c1)C(=O)O [TDC-2M] | showed antiviral activity |  | 33 | 37.9 | 32.3 | no antiviral activity | -4.8 | -15.4 | -39.5 | -72.2 |  |  |  |  |  |  |  |  | CC50 at 48 h [3]: ~174 µM; IC50 ([1]; Human immunodeficiency virus 1, BAL, TZM-bl, 48 h, HIV-1 BaL (R5), TZM-bl cells, luciferase): 141 µM; inhibition at 300 µM [1, 8]: 47.3%; SI ([1]; selectivity index against HIV-1 BaL (CC50 and IC50 of Table 3)): ~1.24 |
| C[N+](C)(C)[C@@H](Cc1cc(Cl)c(O)c(Cl)c1)C(=O)O [TDC-3M] | showed antiviral activity |  | 20.4 | 39.7 | 29.6 | no antiviral activity | -111 | 9.6 | 8.1 | 15.1 |  |  |  |  |  |  |  |  | CC50 at 48 h [3]: > 300 µM; inhibition at 300 µM [1, 8]: 25.9% |
| COc1c(Br)cc(C[C@@H](C(=O)O)[N+](C)(C)C)cc1Br [TODB-3M] | showed no activity | -26 | -43.3 | -17.7 | -9.2 | showed no activity | 12 | -41.1 | 3.2 | -34 |  |  |  |  |  |  |  |  |  |
| CN(C)CCc1cc(Br)c(O)c(Br)c1 [YDB-2M] | had no antiviral activity; also recorded: did not show significant anti-HIV activity |  |  |  |  | had no antiviral activity |  |  |  |  | 26.1 | 2.7 | 7 | -45.8 | 14.6 | -7 | 9.8 | -20.7 |  |
| CN(C)CCc1cc(Cl)c(O)c(Cl)c1 [YDC-2M] | had no activity |  |  |  |  | had no activity |  |  |  |  | -4.1 | 8.8 | 19.1 | -2.8 | 15.1 | -22 | 22.6 | 29.1 |  |
| COc1c(Br)cc(CCN(C)C)cc1Br [YODB-2M] |  |  |  |  |  |  |  |  |  |  | -51.1 | -73.9 | -88.5 | -14.9 | -24.6 | -20 | -20.2 | -17 |  |
| COc1c(Br)cc(CC[N+](C)(C)C)cc1Br [YODB-3M] |  | -25.1 | -14.1 | -9 | 9.3 |  | -3.1 | -10.5 | 20.3 | 13.1 |  |  |  |  |  |  |  |  | CC50 at 48 h [3]: 78.7 µM |
| COc1c(Cl)cc(CCN(C)C)cc1Cl [YODC-2M] |  |  |  |  |  |  |  |  |  |  | 24.5 | 12.2 | 26.9 | -96.2 | -0.3 | 2.3 | -2.2 | 2.5 |  |
| COc1c(Cl)cc(CC[N+](C)(C)C)cc1Cl [YODC-3M] |  | -19.7 | -7.7 | -1 | -1.3 |  | 3.2 | -5.8 | -8.6 | 0.5 |  |  |  |  |  |  |  |  |  |
